From US9718846B1, “Crystalline polymorphs of benfotiamine, process for preparation and its use thereof” (Shanghai Ri Xin Biotechnolgy Co., Ltd., priority 2012, dated 2017)

Key:
[1] = Dynamic vapor sorption analysis of hygroscopicity; type: physicochemical; conditions: RH from 5% to 95%, comparison of forms A, C, D, E
Text: Dynamic vapor sorption analysis was used for measurement of the hygroscopicity of crystalline form A, C, D, and E under the scope of relative humidity (RH) from 5% to 95%.

[2] = Solubility in methanol/dichloromethane mixture; type: physicochemical; conditions: methanol/dichloromethane mixture (1:3 v/v), organic solvent or mixture; mixture organic solvent of methanol and dichloromethane (volume ratio 1:3)
Experimental: In 200 μl of a mixture organic solvent of methanol and dichloromethane (volume ratio 1:3) was added 10 mg of the crystalline form E of benfotiamine (solubility 50 mg/ml). Then, 1 ml of the poor solvent of ethanol was slowly added to the mixture along device wall. Precipitated crystals were collected by filtration, followed by evaporated in the air.

| hygroscopicity rank among the four crystalline forms [1] | solubility [2] | SMILES |
| --- | --- | --- |
| highest |  | C/C(=C(\CCO[P+]([O-])(O)O)SC(=O)c1ccccc1)N(C=O)Cc1cnc(C)nc1N [crystalline form D, S-benzoylthiamine O-monophosphate] |
| lowest | 50 mg/mL | C/C(=C(\CCO[P+]([O-])(O)O)SC(=O)c1ccccc1)N(C=O)Cc1cnc(C)nc1N [crystalline form E, S-benzoylthiamine O-monophosphate] |
